# Assay results reported in ChEMBL document CHEMBL1201862, “PubChem BioAssay data set” (2004).
#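 Grown in 96-well plates, cells were treated for 48 hours with each compound at five concentrations. Insufficient inhibition: endpoint recorded as highest concentration tested. At the GI50, growth is halved.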 Calls of active or inactive are those of the source. No stated cut-off is given here; in the data, active = GI50 up to about 1.1 µM and inactive = higher.
# Assays:
# Assay in all cases: inhibition of tumour cell growth, NCI panel, 48 h
# ACHN = test system: ACHN
# TK-10 = test system: TK-10
# Hs-578T = test system: Hs-578T
# RXF 393 = test system: RXF 393
# MDA-MB-231 = test system: MDA-MB-231
# MDA-N = test system: MDA-N
# SN12C = test system: SN12C
# OVCAR-8 = test system: OVCAR-8
# EKVX = test system: EKVX
# SK-OV-3 = test system: SK-OV-3
# UACC-62 = test system: UACC-62
# PC-3 = test system: PC-3
# SF-539 = test system: SF-539
# A498 = test system: A498
# HOP-62 = test system: HOP-62
# Malme-3M = test system: Malme-3M
# SNB-75 = test system: SNB-75
# SK-MEL-5 = test system: SK-MEL-5
# U-251 = test system: U-251
# HL-60 = test system: HL-60
# 786-0 = test system: 786-0
# SF-295 = test system: SF-295
# HCT-15 = test system: HCT-15
# LOX IMVI = test system: LOX IMVI
# M14 = test system: M14
# SK-MEL-28 = test system: SK-MEL-28
# IGROV-1 = test system: IGROV-1
# OVCAR-3 = test system: OVCAR-3
# CAKI-1 = test system: CAKI-1
# HCC 2998 = test system: HCC 2998
# NCI-H226 = test system: NCI-H226
# HOP-92 = test system: HOP-92
# BT-549 = test system: BT-549
# COLO 205 = test system: COLO 205
# UO-31 = test system: UO-31
# SW-620 = test system: SW-620
# HT-29 = test system: HT-29
# NCI-H522 = test system: NCI-H522
# UACC-257 = test system: UACC-257
# NCI-H23 = test system: NCI-H23
# OVCAR-4 = test system: OVCAR-4
# MCF7 = test system: MCF7
# HCT-116 = test system: HCT-116
# SF-268 = test system: SF-268
# K562 = test system: K562
# A549 = test system: A549
# NCI-H460 = test system: NCI-H460
# SNB-19 = test system: SNB-19
# OVCAR-5 = test system: OVCAR-5
# SK-MEL-2 = test system: SK-MEL-2
# NCI/ADR-RES = test system: NCI/ADR-RES
# DU-145 = test system: DU-145
# CCRF-CEM = test system: CCRF-CEM
# MDA-MB-435 = test system: MDA-MB-435
structure (smiles),measurement,setting,value
[N-]=[N+]=NC1=NNC2(C(=O)N1)c1ccccc1-c1ccccc12,GI50,ACHN,> 100 µM (inactive)
same,GI50,TK-10,> 100 µM (inactive)
same,GI50,Hs-578T,27.6 µM (inactive)
same,GI50,RXF 393,> 100 µM (inactive)
same,GI50,MDA-MB-231,> 100 µM (inactive)
same,GI50,MDA-N,> 100 µM (inactive)
same,GI50,SN12C,> 100 µM (inactive)
same,GI50,OVCAR-8,> 100 µM (inactive)
same,GI50,EKVX,> 100 µM (inactive)
same,GI50,SK-OV-3,> 100 µM (inactive)
same,GI50,UACC-62,> 100 µM (inactive)
same,GI50,PC-3,> 100 µM (inactive)
same,GI50,SF-539,> 100 µM (inactive)
same,GI50,A498,> 100 µM (inactive)
same,GI50,HOP-62,> 100 µM (inactive)
same,GI50,Malme-3M,18.1 µM (inactive)
same,GI50,SNB-75,> 100 µM (inactive)
same,GI50,SK-MEL-5,> 100 µM (inactive)
same,GI50,U-251,> 100 µM (inactive)
same,GI50,HL-60,> 100 µM (inactive)
same,GI50,786-0,> 100 µM (inactive)
same,GI50,SF-295,> 100 µM (inactive)
same,GI50,HCT-15,> 100 µM
same,GI50,LOX IMVI,> 100 µM (inactive)
same,GI50,M14,> 100 µM (inactive)
same,GI50,SK-MEL-28,> 100 µM (inactive)
same,GI50,IGROV-1,> 100 µM (inactive)
same,GI50,OVCAR-3,> 100 µM (inactive)
same,GI50,CAKI-1,> 100 µM (inactive)
same,GI50,HCC 2998,> 100 µM (inactive)
same,GI50,NCI-H226,> 100 µM (inactive)
same,GI50,HOP-92,> 100 µM (inactive)
same,GI50,BT-549,> 100 µM (inactive)
same,GI50,COLO 205,> 100 µM (inactive)
same,GI50,UO-31,> 100 µM (inactive)
same,GI50,SW-620,> 100 µM (inactive)
same,GI50,HT-29,> 100 µM (inactive)
same,GI50,NCI-H522,> 100 µM (inactive)
same,GI50,UACC-257,> 100 µM (inactive)
same,GI50,NCI-H23,> 100 µM (inactive)
same,GI50,OVCAR-4,> 100 µM (inactive)
same,GI50,MCF7,72.1 µM (inactive)
same,GI50,HCT-116,14.2 µM (inactive)
same,GI50,SF-268,> 100 µM (inactive)
same,GI50,K562,> 100 µM (inactive)
same,GI50,A549,> 100 µM (inactive)
same,GI50,NCI-H460,> 100 µM (inactive)
same,GI50,SNB-19,> 100 µM (inactive)
same,GI50,OVCAR-5,> 100 µM (inactive)
same,GI50,SK-MEL-2,> 100 µM (inactive)
same,GI50,NCI/ADR-RES,> 100 µM (inactive)
same,GI50,DU-145,> 100 µM (inactive)
same,GI50,CCRF-CEM,> 100 µM (inactive)
same,GI50,MDA-MB-435,17.4 µM (inactive)
